The record followed here is ChEMBL document CHEMBL1201862, “PubChem BioAssay data set” (2004).

Common to all, as to experiment: NCI-60 cell line screen, 48 h
Assay [1] has as its system HCT-15.
Assay [2] deals with UO-31.
Assay [3] relates to HL-60.
Assay [4] has as its system PC-3.
Assay [5] deals with M14.
The subject of assay [6] is UACC-62.
Assay [7] relates to SF-268.
The subject of assay [8] is SNB-75.
The subject of assay [9] is SNB-19.
Assay [10] relates to OVCAR-4.
The test system of assay [11] is T47D.
For assay [12], the system named is A498.
Assay [13] deals with RPMI-8226.
Assay [14] concerns ACHN.
In assay [15] the test system is DU-145.
Assay [16] relates to KM12.
Assay [17] deals with NCI-H460.
Assay [18] relates to COLO 205.
For assay [19], the system named is SK-OV-3.
Assay [20] deals with SR.

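Tested at 5 concentrations; 48 h exposure; 96-well plates; endpoints linearly interpolated, else capped at highest concentration. GI50 marks 50% less growth.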 Activity calls are given as the source filed them. Cut-off read from the data, not from the text of the source: active = GI50 up to about 1.1 µM and inactive = higher.

For `CC1(C)CC[C@]2(C(=O)O)CC[C@]3(C)[C@H](C(=O)C=C4[C@@]5(C)C=C(C#N)C(=O)C(C)(C)[C@@H]5CC[C@]43C)[C@@H]2C1` [BARDOXOLONE], the GI50 is 113 nM in assay [1]; 1060 nM (active) in assay [2]; 205 nM (active) in [3]; 311 nM (active) in [4]; 769 nM (active) in [5]; 200 nM (active) in assay [6]. Also, the GI50 in [7] was 659 nM (active); in assay [8], 450 nM (active); in assay [9], 303 nM (active); in assay [10] it was 1030 nM (active); in assay [11] it was 414 nM (active); in assay [12], 391 nM (active). For the same compound, the GI50 is 21.4 nM (active) in assay [13]; 543 nM (active) in assay [14]; 508 nM (active) in assay [15]; 279 nM (active) in assay [16]; 486 nM (active) in [17]; 215 nM (active) in assay [18]. For the same compound, the GI50 in [19] is 875 nM (active); in assay [20], 56.1 nM (active).
